Key:
Ile164 receptor [1] = details: Ile164 receptor compared to Thr164 receptor; cited from earlier work
Ile164 receptor [2] = details: cited from earlier work; for binding affinity: competition with [125I]cyp in the presence of GTP, Ile164 receptor
human Ile164 receptor = details: transgenic mice overexpressing human Ile164 receptor in the heart compared to wild-type receptor; cited from earlier work
Thr164 receptor = details: COS-7 cells transiently transfected; salmeterol 10 minutes at 37 °C, perfused with saline 30 min; n = 5, p = 0.02
Experimental: The exosite binding studies were carried out by methods as described in reference 4. Briefly, COS-7 cells were transiently transfected with constructs consisting of Thr164 or Ile164 cDNAs in the vector pBC12BI as previously described (4). Cells were grown in 35 mm dishes as monolayers. […] The media was removed, and cells perfused with saline at a rate of 20 ml/min for 30 min. Cells were detached by scraping and cell membranes prepared. […] Reactions were run for 2 hrs at 25 °C. Bound radioligand was separated from unbound by vacuum filtration over Whatman GF/C filters, which were counted in a gamma counter at 70% efficiency. Specific binding was defined as total minus non-specific binding, corrected for protein.

| Compound | stimulation of adenylyl cyclase (Ile164 receptor [1]) | binding affinity (Ile164 receptor [2]) | adenylyl cyclase activity in response to agonist (human Ile164 receptor) | binding curves (Ile164 receptor [2]; in the absence of GTP, Ile164 compared to Thr164 receptor (Figure 2)) | salmeterol exosite binding (Thr164 receptor) [%] |
| --- | --- | --- | --- | --- | --- |
| CNC[C@H](O)c1ccc(O)c(O)c1 [epinephrine] | decreased stimulation | small decrease in binding affinity |  |  |  |
| CC(C)NCC(O)c1ccc(O)c(O)c1 (stereo not shown) [isoproterenol] |  | small decrease in binding affinity | lowered activities | different between the two receptors |  |
| NC[C@H](O)c1ccc(O)c(O)c1 [norepinephrine] |  | small decrease in binding affinity |  |  |  |
| OCc1cc(C(O)CNCCCCCCOCCCCc2ccccc2)ccc1O (stereo not shown) [salmeterol] |  |  |  |  | 49 ± 4 |
